*1 amine or outer side, *2 acyl side, *3 side chain or, on linkers, in order; H or OH if unused. Where a SMILES comes first, the peptide text is derived from it. Side-chain parts run from the residue outwards. [ ]: non-standard residue; d: D form. The star is where a group is joined. C20 diacid = O=C(O)CCCCCCCCCCCCCCCCCCC(=O)*; C18 diacid = O=C(O)CCCCCCCCCCCCCCCCC(=O)*; γGlu = O=C(O)[C@H](CCC(=O)[*:2])N[*:1]; αMeF = C[C@](N)(Cc1ccccc1)C(=O)O; 4Pal = N[C@@H](Cc1ccncc1)C(=O)O; αMeL = CC(C)C[C@](C)(N)C(=O)O; Orn = NCCC[C@H](N)C(=O)O; AEEA = NCCOCCOCC(=O)O; Aib = CC(C)(N)C(=O)O
How the values were obtained:
human GcgR = molecular target: T1, human GcgR (Homo sapiens, UniProt P47871); assay: [125I]-Glucagon binding, SPA with WGA beads, 0.1% bacitracin; conditions: geometric mean, read-out: hGcgR Ki
T1 construct: expressed in transfected cells; crude membranes
T1 sequence (P47871 26-477): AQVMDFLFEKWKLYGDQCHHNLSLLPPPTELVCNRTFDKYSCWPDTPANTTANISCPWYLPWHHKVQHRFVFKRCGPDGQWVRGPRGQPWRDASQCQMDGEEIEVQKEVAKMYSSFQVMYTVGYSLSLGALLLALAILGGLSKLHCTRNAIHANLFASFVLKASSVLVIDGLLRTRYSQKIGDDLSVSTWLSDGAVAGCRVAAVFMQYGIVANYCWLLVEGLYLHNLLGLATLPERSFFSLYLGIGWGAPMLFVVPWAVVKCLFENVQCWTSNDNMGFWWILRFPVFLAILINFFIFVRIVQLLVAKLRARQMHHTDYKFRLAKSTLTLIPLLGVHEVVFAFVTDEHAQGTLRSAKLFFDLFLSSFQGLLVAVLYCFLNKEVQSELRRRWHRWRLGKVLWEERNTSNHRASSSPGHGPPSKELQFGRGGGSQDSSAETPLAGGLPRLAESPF
How it was run: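 SPA competition binding with WGA beads on crude membranes from HEK293 cells stably expressing hGcgR. Buffer: 25 mM HEPES pH 7.4, 2.5 mM CaCl2, 1 mM MgCl2, 0.1% bacitracin, 0.003% Tween-20; 10-point 3-fold dilutions, NSB with 1 μM Gcg.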

[1] = molecular target: T2, human GLP-1 receptor (GLP-1R) (Homo sapiens, UniProt P43220); assay: cAMP functional assay (HTRF) in HEK293 cells in presence of 0.1% casein; assay type: cell-based; conditions: HEK293 cells expressing human GLP-1R, geometric mean, read-out: hGLP1R cAMP Rel EC50 nM (SEM, n)
T2 construct: expressed in transfected cells; host or cells: HEK293
T2 sequence (P43220 24-463): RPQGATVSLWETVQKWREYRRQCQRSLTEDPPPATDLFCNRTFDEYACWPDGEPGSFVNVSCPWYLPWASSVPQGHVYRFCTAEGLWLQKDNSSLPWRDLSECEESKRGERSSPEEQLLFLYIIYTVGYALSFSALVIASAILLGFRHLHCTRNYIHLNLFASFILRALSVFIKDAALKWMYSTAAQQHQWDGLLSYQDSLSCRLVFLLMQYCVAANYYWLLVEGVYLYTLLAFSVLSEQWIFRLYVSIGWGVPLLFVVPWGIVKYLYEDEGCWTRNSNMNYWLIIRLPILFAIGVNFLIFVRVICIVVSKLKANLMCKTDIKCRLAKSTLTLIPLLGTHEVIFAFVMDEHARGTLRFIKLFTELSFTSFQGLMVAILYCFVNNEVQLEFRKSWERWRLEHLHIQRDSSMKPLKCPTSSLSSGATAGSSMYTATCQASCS

[2] = molecular target: T3, human glucagon receptor (GcgR) (Homo sapiens, UniProt P47871); assay: as above; assay type: cell-based; conditions: HEK293 cells expressing human GcgR, geometric mean, read-out: hGcgR cAMP Rel EC50 nM (SEM, n)
T3 construct: expressed in transfected cells; host or cells: HEK293
T3 sequence (P47871 26-477): as the sequence (P47871 26-477) above

## CC[C@H](C)[C@H](NC(=O)[C@H](CO)NC(=O)[C@H](Cc1ccc(O)cc1)NC(=O)[C@H](CC(=O)O)NC(=O)[C@H](CO)NC(=O)[C@@H](NC(=O)[C@H](Cc1ccccc1)NC(=O)[C@@H](NC(=O)CNC(=O)[C@H](CCC(=O)O)NC(=O)[C@@H](C)NC(=O)[C@@H](N)Cc1ccc(O)cc1)[C@@H](C)O)[C@@H](C)CC)C(=O)N[C@@H](CC(C)C)C(=O)N[C@@H](CC(C)C)C(=O)N[C@@H](CC(=O)O)C(=O)N[C@@H](CCCCN)C(=O)N[C@@H](CCCCNC(=O)COCCOCCNC(=O)COCCOCCNC(=O)CC[C@H](NC(=O)CCCCCCCCCCCCCCCCCCC(=O)O)C(=O)O)C(=O)N[C@@H](C)C(=O)N[C@@H](CCC(N)=O)C(=O)N[C@@H](CCC(N)=O)C(=O)N[C@@H](CC(=O)O)C(=O)N[C@@H](Cc1ccccc1)C(=O)N[C@H](C(=O)N[C@@H](CC(N)=O)C(=O)N[C@@H](Cc1c[nH]c2ccccc12)C(=O)N[C@@H](CC(C)C)C(=O)N[C@@H](CC(C)C)C(=O)N[C@@H](C)C(=O)NCC(=O)NCC(=O)N1CCC[C@H]1C(=O)N[C@@H](CO)C(=O)N[C@@H](CO)C(=O)NCC(=O)N[C@@H](C)C(=O)N1CCC[C@H]1C(=O)N1CCC[C@H]1C(=O)N1CCC[C@H]1C(=O)N[C@@H](CO)C(N)=O)C(C)C [Example 12] (H-Y[dA]EGTFISDYSILLDKK([AEEA-AEEA-γGlu-C20 diacid])AQQDFVNWLLAGGPSSGAPPPS-NH2)
Human GcgR
  Ki: 134 nM
[1]
  EC50: > 100 nM
[2]
  EC50: > 5000 nM

## CC[C@H](C)[C@H](NC(=O)[C@H](CO)NC(=O)[C@H](Cc1ccc(O)cc1)NC(=O)[C@H](CC(=O)O)NC(=O)[C@H](CO)NC(=O)[C@@H](NC(=O)[C@H](Cc1ccccc1)NC(=O)[C@@H](NC(=O)CNC(=O)[C@H](CCC(=O)O)NC(=O)[C@@H](C)NC(=O)[C@@H](N)Cc1ccc(O)cc1)[C@@H](C)O)[C@@H](C)CC)C(=O)N[C@@H](CC(C)C)C(=O)N[C@@H](CC(C)C)C(=O)N[C@@H](CC(=O)O)C(=O)N[C@@H](CCCCN)C(=O)N[C@@H](CCCCNC(=O)COCCOCCNC(=O)COCCOCCNC(=O)CC[C@H](NC(=O)CCCCCCCCCCCCCCCCC(=O)O)C(=O)O)C(=O)N[C@@H](C)C(=O)N[C@@H](CCC(N)=O)C(=O)NC(C)(C)C(=O)N[C@@H](CCC(=O)O)C(=O)N[C@@H](Cc1ccccc1)C(=O)N[C@H](C(=O)N[C@@H](CC(N)=O)C(=O)N[C@@H](Cc1c[nH]c2ccccc12)C(=O)N[C@@H](CC(C)C)C(=O)N[C@@H](CC(C)C)C(=O)N[C@@H](CCC(=O)O)C(=O)NCC(=O)NCC(=O)N1CCC[C@H]1C(=O)N[C@@H](CO)C(=O)N[C@@H](CO)C(=O)NCC(=O)N[C@@H](C)C(=O)N1CCC[C@H]1C(=O)N1CCC[C@H]1C(=O)N1CCC[C@H]1C(=O)N[C@@H](CO)C(N)=O)C(C)C [Example 28] (H-Y[dA]EGTFISDYSILLDKK([AEEA-AEEA-γGlu-C18 diacid])AQ[Aib]EFVNWLLEGGPSSGAPPPS-NH2)
Human GcgR
  Ki: 86.8 nM
[1]
  EC50: > 5000 nM
[2]
  EC50: > 5000 nM

## CC[C@H](C)[C@H](NC(=O)[C@H](Cc1ccccc1)NC(=O)[C@@H](NC(=O)CNC(=O)[C@H](CCC(=O)O)NC(=O)C(C)(C)NC(=O)[C@@H](N)Cc1ccc(O)cc1)[C@@H](C)O)C(=O)N[C@@H](CO)C(=O)N[C@@H](CC(=O)O)C(=O)N[C@@H](Cc1ccc(O)cc1)C(=O)N[C@@H](CO)C(=O)N[C@H](C(=O)NC(C)(C)C(=O)N[C@@H](CC(C)C)C(=O)N[C@@H](CC(=O)O)C(=O)N[C@@H](CCCCN)C(=O)N[C@@H](CCCCNC(=O)COCCOCCNC(=O)COCCOCCNC(=O)CC[C@H](NC(=O)CCCCCCCCCCCCCCCCC(=O)O)C(=O)O)C(=O)N[C@@H](Cc1c[nH]cn1)C(=O)N[C@@H](CCC(N)=O)C(=O)NC(C)(C)C(=O)N[C@@H](CC(=O)O)C(=O)N[C@@H](Cc1ccccc1)C(=O)N[C@H](C(=O)N[C@@H](CCC(=O)O)C(=O)N[C@@H](Cc1ccncc1)C(=O)N[C@@H](CC(C)C)C(=O)N[C@@H](CC(C)C)C(=O)N[C@@H](C)C(=O)NCC(=O)NCC(=O)N1CCC[C@H]1C(=O)N[C@@H](CO)C(=O)N[C@@H](CO)C(=O)NCC(=O)N[C@@H](C)C(=O)N1CCC[C@H]1C(=O)N1CCC[C@H]1C(=O)N1CCC[C@H]1C(=O)N[C@@H](CO)C(N)=O)C(C)C)[C@@H](C)CC [Example 24]
Human GcgR
  Ki: > 960 nM
[1]
  EC50: > 5000 nM
[2]
  EC50: > 5000 nM

## CC[C@H](C)[C@H](NC(=O)[C@H](CO)NC(=O)[C@H](Cc1ccc(O)cc1)NC(=O)[C@H](CC(=O)O)NC(=O)[C@H](CO)NC(=O)[C@@H](NC(=O)[C@](C)(Cc1ccccc1)NC(=O)[C@@H](NC(=O)CNC(=O)[C@H](CCC(=O)O)NC(=O)C(C)(C)NC(=O)[C@@H](N)Cc1ccc(O)cc1)[C@@H](C)O)[C@@H](C)CC)C(=O)N[C@@H](C)C(=O)N[C@@H](CC(C)C)C(=O)N[C@@H](CC(=O)O)C(=O)N[C@@H](CCCCN)C(=O)N[C@@H](CCCCNC(=O)COCCOCCNC(=O)COCCOCCNC(=O)CC[C@H](NC(=O)CCCCCCCCCCCCCCCCCCC(=O)O)C(=O)O)C(=O)N[C@@H](Cc1c[nH]cn1)C(=O)N[C@@H](CCC(N)=O)C(=O)NC(C)(C)C(=O)N[C@@H](CCC(=O)O)C(=O)N[C@@H](Cc1ccccc1)C(=O)N[C@H](C(=O)N[C@@H](CC(N)=O)C(=O)N[C@@H](Cc1c[nH]c2ccccc12)C(=O)N[C@@H](CC(C)C)C(=O)N[C@@H](CC(C)C)C(=O)N[C@@H](C)C(=O)NCC(=O)NCC(=O)N1CCC[C@H]1C(=O)N[C@@H](CO)C(=O)N[C@@H](CO)C(=O)NCC(=O)N[C@@H](C)C(=O)N1CCC[C@H]1C(=O)N1CCC[C@H]1C(=O)N1CCC[C@H]1C(=O)N[C@@H](CO)C(N)=O)C(C)C [Example 25] (H-Y[Aib]EGT[αMeF]ISDYSIALDKK([AEEA-AEEA-γGlu-C20 diacid])HQ[Aib]EFVNWLLAGGPSSGAPPPS-NH2)
Human GcgR
  Ki: 101 nM
[1]
  EC50: 8.39 nM
[2]
  EC50: > 5000 nM

## CC[C@H](C)[C@H](NC(=O)[C@H](Cc1ccccc1)NC(=O)[C@@H](NC(=O)CNC(=O)[C@H](CCC(=O)O)NC(=O)C(C)(C)NC(=O)[C@@H](N)Cc1ccc(O)cc1)[C@@H](C)O)C(=O)N[C@@H](CO)C(=O)N[C@@H](CC(=O)O)C(=O)N[C@@H](Cc1ccc(O)cc1)C(=O)N[C@@H](CO)C(=O)N[C@H](C(=O)N[C@@](C)(CC(C)C)C(=O)N[C@@H](CC(C)C)C(=O)N[C@@H](CC(=O)O)C(=O)N[C@@H](CCCN)C(=O)N[C@@H](CCCCNC(=O)COCCOCCNC(=O)COCCOCCNC(=O)CC[C@H](NC(=O)CCCCCCCCCCCCCCCCC(=O)O)C(=O)O)C(=O)N[C@@H](Cc1c[nH]cn1)C(=O)N[C@@H](CCC(N)=O)C(=O)NC(C)(C)C(=O)N[C@@H](CC(=O)O)C(=O)N[C@@H](Cc1ccccc1)C(=O)N[C@H](C(=O)N[C@@H](CCC(=O)O)C(=O)N[C@@H](Cc1ccncc1)C(=O)N[C@@H](CC(C)C)C(=O)N[C@@H](CC(C)C)C(=O)N[C@@H](CCC(=O)O)C(=O)N[C@@H](C)C(=O)NCC(=O)N1CCC[C@H]1C(=O)N[C@@H](CO)C(=O)N[C@@H](CO)C(=O)NCC(=O)N[C@@H](C)C(=O)N1CCC[C@H]1C(=O)N1CCC[C@H]1C(=O)N1CCC[C@H]1C(=O)N[C@@H](CO)C(N)=O)C(C)C)[C@@H](C)CC [Example 87] (H-Y[Aib]EGTFISDYSI[αMeL]LD[Orn]K([AEEA-AEEA-γGlu-C18 diacid])HQ[Aib]DFVE[4Pal]LLEAGPSSGAPPPS-NH2)
Human GcgR
  Ki: 576 nM
[1]
  EC50: > 5000 nM
[2]
  EC50: > 5000 nM

## CC[C@H](C)[C@H](NC(=O)[C@H](CCCN)NC(=O)[C@H](CC(=O)O)NC(=O)[C@H](CC(C)C)NC(=O)[C@](C)(CC(C)C)NC(=O)[C@@H](NC(=O)[C@H](CO)NC(=O)[C@H](Cc1ccc(O)cc1)NC(=O)[C@H](CC(=O)O)NC(=O)[C@H](CO)NC(=O)[C@@H](NC(=O)[C@H](Cc1ccccc1)NC(=O)[C@@H](NC(=O)CNC(=O)[C@H](CCC(=O)O)NC(=O)C(C)(C)NC(=O)[C@@H](N)Cc1ccc(O)cc1)[C@@H](C)O)[C@@H](C)CC)[C@@H](C)CC)C(=O)N[C@@H](Cc1c[nH]cn1)C(=O)N[C@@H](CCC(N)=O)C(=O)NC(C)(C)C(=O)N[C@@H](CCC(=O)O)C(=O)N[C@@H](Cc1ccccc1)C(=O)N[C@H](C(=O)N[C@@H](CCC(=O)O)C(=O)N[C@@H](Cc1ccc(O)cc1)C(=O)N[C@@H](CCCCNC(=O)COCCOCCNC(=O)COCCOCCNC(=O)CC[C@H](NC(=O)CCCCCCCCCCCCCCCCCCC(=O)O)C(=O)O)C(=O)N[C@@H](CC(C)C)C(=O)N[C@@H](CCC(=O)O)C(=O)NCC(=O)NCC(=O)N1CCC[C@H]1C(=O)N[C@@H](CO)C(=O)N[C@@H](CO)C(=O)NCC(=O)N[C@@H](C)C(=O)N1CCC[C@H]1C(=O)N1CCC[C@H]1C(=O)N1CCC[C@H]1C(=O)N[C@@H](CO)C(N)=O)C(C)C [Example 107] (H-Y[Aib]EGTFISDYSI[αMeL]LD[Orn]IHQ[Aib]EFVEYK([AEEA-AEEA-γGlu-C20 diacid])LEGGPSSGAPPPS-NH2)
Human GcgR
  Ki: 347 nM
[1]
  EC50: > 5000 nM
[2]
  EC50: > 5000 nM

— US12723063B2, “GIPR-agonist compounds” (Eli Lilly and Company, priority 2019, dated 2026)
